Assay results taken from ChEMBL document CHEMBL4266046, “β-Triketone-Monoterpene Hybrids from the Flowers of the Australian Tree Corymbia intermedia” (J Nat Prod, 2018).

Tests used:
[1] = system: Plasmodium falciparum; experiment: Antiplasmodial activity against synchronized ring stage of chloroquine-sensitive Plasmodium falciparum 3D7 infected in human erythrocytes assessed as inhibition of parasite replication after 72 hrs by DAPI staining based fluorescence imaging analysis; type: functional, organism-based; details: 3D7, 72 h
[2] = (§1) Cytotoxicity against HEK293 cells assessed as inhibition of cell proliferation at 100 uM relative to control; type: cell-based; details: human, HEK293 cells
[3] = system: Plasmodium falciparum; experiment: Antiplasmodial activity against synchronized ring stage of chloroquine-sensitive Plasmodium falciparum 3D7 infected in human erythrocytes assessed as inhibition of parasite replication at higher concentration after 72 hrs by DAPI staining based fluorescence imaging analysis relative to control; type: functional
[4] = system: HEK293; experiment: as §1; type: cell-based; details: human, hek293, 100 µM

Row | SMILES | IC50 [1] [µM] | inhibition at 100 µM [2] [%] | inhibition (INH) [3] [%] | Activity [4]
1 | CC1(C)C(=O)C2=C(O[C@]3(CC[C@H]4C[C@@H]3C4(C)C)C[C@@H]2c2ccccc2)C(C)(C)C1=O | 12.5 | 64 | – | –
2 | CC1(C)C(=O)C2=C(O[C@@]3(C)[C@H](C[C@@H]4C[C@H]3C4(C)C)[C@H]2c2ccccc2)C(C)(C)C1=O | 20.8 | – | 100 | Non-Toxic
3 | CC1(C)C(=O)C2=C(O[C@]3(CC[C@H]4C[C@@H]3C4(C)C)C[C@H]2c2ccccc2)C(C)(C)C1=O | 9.9 | – | 100 | –
